Laboratory results taken from the supplement of paper PMC10307832.

Columns and labels:
Experiment in all cases: relative viability (nuclei count vs DMSO), 5 days (fraction); higher = more cells survive
VE-821 + Navitoclax = compound: CS(=O)(=O)c1ccc(-c2cnc(N)c(C(=O)Nc3ccccc3)n2)cc1 [VE-821] + CC1(C)CCC(c2ccc(Cl)cc2)=C(CN2CCN(c3ccc(C(=O)NS(=O)(=O)c4ccc(N[C@H](CCN5CCOCC5)CSc5ccccc5)c(S(=O)(=O)C(F)(F)F)c4)cc3)CC2)C1 [Navitoclax] (partner 0.5 µM)
In short: (§1)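 After 5 days of treatment, lung cancer cells in 1536-well plates were fixed and stained in a single step (final 0.05% Triton X-100, 1% formaldehyde, 1 ug/ml Hoechst) and their nuclei counted on 4× images. Treatment had been applied by pin tool the day after seeding as one drug alone or as a fixed anchor-drug dose with five library-drug doses (not always all listed) in √10 steps. Relative viability is the nuclei count of treated wells divided by that of vehicle wells, and values are medians of duplicate plates.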

VE-821 + Lapatinib = compound: CS(=O)(=O)c1ccc(-c2cnc(N)c(C(=O)Nc3ccccc3)n2)cc1 [VE-821] + CS(=O)(=O)CCNCc1ccc(-c2ccc3ncnc(Nc4ccc(OCc5cccc(F)c5)c(Cl)c4)c3c2)o1 [Lapatinib] (partner 2 µM)
In short: as §1

Vismodegib + Vorinostat = compound: CS(=O)(=O)c1ccc(C(=O)Nc2ccc(Cl)c(-c3ccccn3)c2)c(Cl)c1 [Vismodegib] + O=C(CCCCCCC(=O)Nc1ccccc1)NO [Vorinostat] (partner 1 µM)
In short: as §1

Ruxolitinib + Dasatinib = compound: N#CC[C@H](C1CCCC1)n1cc(-c2ncnc3[nH]ccc23)cn1 [Ruxolitinib] + Cc1nc(Nc2ncc(C(=O)Nc3c(C)cccc3Cl)s2)cc(N2CCN(CCO)CC2)n1 [Dasatinib] (partner 0.075 µM)
In short: as §1

| Cell Line | relative viability (VE-821 + Navitoclax; first compound 0.08 µM) | relative viability (VE-821 + Navitoclax; first compound 0.253 µM) | relative viability (VE-821 + Navitoclax; first compound 0.8 µM) | relative viability (VE-821 + Navitoclax; first compound 2.53 µM) | relative viability (VE-821 + Navitoclax; first compound 8 µM) | relative viability (VE-821 + Lapatinib; first compound 0.08 µM) | relative viability (VE-821 + Lapatinib; first compound 0.253 µM) | relative viability (VE-821 + Lapatinib; first compound 0.8 µM) | relative viability (VE-821 + Lapatinib; first compound 2.53 µM) | relative viability (VE-821 + Lapatinib; first compound 8 µM) | relative viability (Vismodegib + Vorinostat; first compound 0.08 µM) | relative viability (Vismodegib + Vorinostat; first compound 0.253 µM) | relative viability (Vismodegib + Vorinostat; first compound 0.8 µM) | relative viability (Vismodegib + Vorinostat; first compound 2.53 µM) | relative viability (Vismodegib + Vorinostat; first compound 8 µM) | relative viability (Ruxolitinib + Dasatinib; first compound 0.08 µM) | relative viability (Ruxolitinib + Dasatinib; first compound 0.253 µM) | relative viability (Ruxolitinib + Dasatinib; first compound 0.8 µM) | relative viability (Ruxolitinib + Dasatinib; first compound 2.53 µM) | relative viability (Ruxolitinib + Dasatinib; first compound 8 µM) |
| --- | --- | --- | --- | --- | --- | --- | --- | --- | --- | --- | --- | --- | --- | --- | --- | --- | --- | --- | --- | --- |
| 201T | 1.23 | 1.2 | 1.21 | 1.32 | 1.12 | 1.1 | 0.937 | 0.966 | 1.01 | 0.976 | 0.956 | 0.952 | 0.973 | 0.977 | 0.924 | 0.571 | 0.593 | 0.67 | 0.558 | 0.558 |
| A549 | 1.48 | 1.21 | 1.18 | 1.04 | 0.544 | 1.14 | 0.849 | 0.929 | 0.829 | 0.475 |  |  |  |  |  |  |  |  |  |  |
| A-427 | 0.928 | 0.945 | 1.04 | 0.981 | 0.625 | 1.08 | 0.998 | 1.06 | 1.1 | 0.676 | 0.923 | 0.862 | 0.814 | 0.872 | 0.84 | 0.74 | 0.751 | 0.66 | 0.441 | 0.463 |
| ABC-1 |  |  |  |  |  | 1.3 | 1.32 | 0.811 | 0.953 | 0.994 | 1.55 | 0.987 | 0.873 | 1.23 | 1.24 |  | 0.53 | 0.547 | 0.64 | 0.45 |
| BEN | 0.0647 | 0.0527 | 0.059 | 0.0551 | 0.0693 | 0.845 | 0.775 | 0.657 | 0.8 | 0.662 | 0.581 | 0.527 | 0.578 | 0.531 | 0.528 | 0.319 | 0.311 | 0.377 | 0.292 | 0.335 |
| CAL-12T | 1.21 | 1.26 | 1.22 | 1.05 | 1.1 | 0.656 | 0.7 | 0.637 | 0.839 | 0.456 | 0.894 | 0.699 | 0.787 | 0.705 | 0.799 | 0.497 | 0.546 | 0.561 | 0.25 | 0.163 |
| COR-L23 | 1.05 | 1.01 | 1.23 | 1.15 | 0.894 | 1.09 | 0.827 | 1.01 | 1.12 | 0.94 | 0.408 | 0.478 | 0.388 | 0.384 | 0.451 | 0.483 | 0.534 | 0.521 | 0.386 | 0.341 |
| COR-L 105 | 0.797 | 0.683 | 0.651 | 0.606 | 0.725 | 0.383 | 0.354 | 0.341 | 0.351 | 0.463 | 0.94 | 0.803 | 0.829 | 0.826 | 0.71 | 0.313 | 0.295 | 0.326 | 0.214 | 0.23 |
| Calu-6 | 0.845 | 0.828 | 0.791 | 0.648 | 0.35 | 1.21 | 1.05 | 1.1 | 0.89 | 0.551 |  |  |  |  |  |  |  |  |  |  |
| ChaGo-K-1 | 0.929 | 1.06 | 1.22 | 1.03 | 0.594 |  |  |  |  |  | 0.761 | 0.739 | 0.799 | 0.754 | 0.708 | 0.631 | 0.573 | 0.548 | 0.548 | 0.403 |
| EBC-1 | 0.44 | 0.412 | 0.399 | 0.254 | 0.221 | 0.241 | 0.195 | 0.209 | 0.216 | 0.265 |  |  |  |  |  |  |  |  |  |  |
| EKVX | 1.17 | 0.975 | 0.632 | 1.01 | 0.907 | 0.209 | 0.196 | 0.219 | 0.242 | 0.186 | 0.77 | 0.752 | 0.802 | 0.907 | 0.655 | 0.523 | 0.603 | 0.481 | 0.519 | 0.366 |
| EMC-BAC-2 | 1.23 | 1.12 | 1.2 | 1.21 | 1.16 | 1.04 | 0.902 | 0.97 | 1.01 | 0.873 | 0.515 | 0.302 | 0.418 | 0.476 | 0.422 | 0.321 | 0.283 | 0.308 | 0.275 | 0.219 |
| EPLC-272H | 1.52 | 1.13 | 1.33 | 1.12 | 1.35 | 1.07 | 0.976 | 1.12 | 1.24 | 0.848 | 0.398 | 0.368 | 0.49 | 0.329 | 0.509 | 0.399 | 0.402 | 0.42 | 0.243 | 0.134 |
| H3255 | 0.563 | 0.485 | 0.571 | 0.56 | 0.425 | 0.229 | 0.256 | 0.378 | 0.241 | 0.264 | 0.488 | 0.747 | 0.915 | 0.835 | 0.782 | 0.301 | 0.402 | 0.421 | 0.282 | 0.31 |
| HARA | 1.23 | 1.13 | 1.09 | 1.15 | 0.99 | 0.825 | 0.559 | 0.826 | 0.757 | 0.47 | 0.501 | 0.546 | 0.521 | 0.495 | 0.453 | 0.224 | 0.323 | 0.305 | 0.195 | 0.22 |
| HCC-15 | 0.813 | 0.706 | 0.778 | 0.772 | 0.676 | 0.958 | 0.875 | 0.87 | 1.09 | 0.796 | 0.844 | 0.774 | 0.86 | 0.781 | 0.859 | 0.661 | 0.492 | 0.675 | 0.439 | 0.286 |
| HCC-44 | 1.01 | 0.992 | 0.975 | 1.19 | 1.08 | 1.04 | 1.07 | 1.07 | 1.09 | 1.08 | 1.21 | 1.02 | 1.1 | 1.08 | 1.11 |  |  |  |  |  |
